According to patent US8030453B2, “Methods of making an antibody that binds a chemerin polypeptide” (Euroscreen S.A., priority 2001, dated 2011):
Like-named read-outs stand apart in the source and are kept apart here.

What was measured:
[1] = test system: human chemerinR in CHO-K1 cells; assay: intracellular cascade assays (calcium release, cAMP accumulation, p42/p44 MAP kinase phosphorylation) in CHO/chemerinR cells; type: cell-based
[2] = test system: human monocyte-derived dendritic cells and macrophages; assay: chemotaxis (48-well microchemotaxis chamber) of primary cells; type: cell-based
Procedure: (§1) Monocyte-derived DCs were generated by GM-CSF (50 ng/ml) and IL-13 (20 ng/ml) stimulation as previously described (17). Maturation of DCs was achieved following stimulation with 100 ng/ml LPS. Macrophages were obtained by incubating monocytes in Petriperm dishes (Haereus) for 6 days in RPMI supplemented with 10% FCS and 10 ng/ml MCSF. Cell migration was evaluated using a 48-well microchemotaxis chamber technique as described (18). For Ca2+ mobilization assays, monocyte-derived DCs or macrophages (10^7 cells/ml in HBSS without phenol red but containing 0.1% BSA) were loaded with 5 μM FURA-2 (Molecular Probes) for 30 min at 37° C. in the dark. The loaded cells were washed twice, resuspended at 10^6 cells/ml, kept for 30 min at 4° C. in the dark with or without the blocking 4C7 monoclonal antibody (10 μg/ml), and transferred into the quartz cuvette of a luminescence spectrometer LS50B (PerkinElmer).

[3] = test system: monocyte-derived immature dendritic cells and macrophages; assay: Ca2+ mobilization (FURA-2) in primary cells; type: cell-based, human; details: similar for macrophages, Chemerin 30 nM
Procedure: as §1

[4] = test system: C5a and C3a receptors, CRTH2, GPR1, other characterized and orphan receptors, most chemokine receptors; assay: reactivity of related and other receptors to Chemerin; type: cell-based; details: purified human Chemerin
wild-type CHO-K1 cells = assay: signalling assays on wild-type CHO-K1 cells; type: cell-based, hamster
B16F0 melanoma cell line = assay: in vitro proliferation of transfected B16F0 cells (BrdU, cell cycle, cell counting); type: cell-based, mouse; details: expression of Chemerin in B16F0 cells
Procedure: (§2) B16-F0 melanoma cells (ATCC) were transfected with the pEFIN3-mouse chemerin plasmid using FuGene6, and selected with 800 μg/ml G418. Clones were characterized by assaying the conditioned medium on chemerinRexpres sing cells. In vitro proliferation rate was determined by BrdU incorporation as described30. For in vivo studies, cells were washed twice with PBS, and grafted (6×10^5 cells in 0.1 ml PBS) subcutaneously into the back of 10-week-old C57B16 mice (5 to 11 mice per group, Harlan, The Netherlands). Perpendicular tumor diameters (D and d) were measured every 2 days, and the volume was estimated as V=π(d/2)(D/2)(d/2). Statistical analysis was performed by using the unpaired non parametric Mann-Whitney test. For microscopic analysis, tumors were embedded in OCT, snap-frozen in −80° C. isopentane and cut at 12 μm. Sections were stained with hematoxylin-eosin (HE) for routine analysis. All animal procedures were approved by the ethical committee of the Medical School of the Universite Libre de Bruxelles.

B16-F0 melanoma cells = assay: B16-F0 melanoma model, subcutaneous graft in C57Bl6 mice; type: in vivo, mouse
Procedure: as §2

[5] = target: T1, human ChemerinR (ChemR23) expressed in CHO-K1 cells (Homo sapiens, UniProt Q99788); assay: aequorin-based intracellular Ca2+ release assay; type: cell-based
T1 construct: This fragment was subcloned into the pcDNA3 (Invitrogen) vector; expressed in transfected cells; host or cells: CHO-K1 (co-expressing mitochondrial apoaequorin and Galpha16)
T1 sequence (Q99788 3-373): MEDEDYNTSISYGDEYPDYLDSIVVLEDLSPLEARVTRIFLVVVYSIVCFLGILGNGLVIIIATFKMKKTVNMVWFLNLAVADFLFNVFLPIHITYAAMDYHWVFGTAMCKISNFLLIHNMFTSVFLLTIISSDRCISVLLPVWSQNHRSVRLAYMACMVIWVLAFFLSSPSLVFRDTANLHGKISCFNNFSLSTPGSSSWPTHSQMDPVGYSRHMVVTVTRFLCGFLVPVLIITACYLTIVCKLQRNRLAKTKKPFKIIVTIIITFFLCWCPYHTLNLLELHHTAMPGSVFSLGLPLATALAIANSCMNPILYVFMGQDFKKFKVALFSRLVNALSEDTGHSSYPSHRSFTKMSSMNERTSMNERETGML
Procedure: Briefly, ChemerinR-expressing clones are transfected to coexpress mitochondrial apoaequorin and Gα16. Cells are incubated with 5 μM Coelenterazine H (Molecular Probes) for 4 hours at room temperature, washed in DMEM-F12 culture medium and resuspended at a concentration of 0.5×10^6 cells/ml. Cells are then mixed with test agonist peptides and light emission by the aequorin is recorded with a luminometer for 30 sec. Results are expressed as Relative Light Units (RLU). Controls include assays using membranes isolated from cells not expressing ChemerinR (mock-transfected), in order to exclude possible non-specific effects of the candidate compound.
ChemerinR-expres sing clones have been obtained by transfection of CHO-K1 cells to coexpressing mitochondrial apoaequorin and Gα16, limiting dilution and selection by northern blotting. Positive clones were used for screening with human ovarian cancer ascites extracts prepared as described above. […] Briefly, cells were collected from plates in PBS containing 5 mM EDTA, pelleted and resuspended at 5×10^6 cells/ml in DMEM-F12 medium. Cells were incubated with 5 μM Coelenterazine H (Molecular Probes) for 4 hours at room temperature. Cells were then washed in DMEM-F12 medium and resuspended at a concentration of 0.5×10^6 cells/ml. Cells were then mixed with test agonist peptides or plates containing tissue extracts and the light emission was recorded for 30 sec using a Microlumat luminometer (Perkin Elmer). Results are expressed as Relative Light Units (RLU).

[6] = 100 nM; culture medium or conditioned media of CHO-K1, Cos-7 or HEK293 cells
Procedure: In order to investigate whether proteolytic activation of prochemerin is performed intracellularly in the secretory pathway, or is an extracellular process, potentially regulated by the activation of extracellular proteases, we tested the activation of human purified prochemerin in the medium of cultured cells and conditioned media.

Molecule: Pertussis toxin [reference compound]
- effect on Chemerin signalling effects ([1]; pretreatment): inhibited
- effect on Chemerin-induced migration ([2]; macrophages and dendritic cells, Pertussis toxin 3 μg/ml, 4C7 10 μg/ml): completely abolished

Molecule: recombinant Chemerin: human recombinant Chemerin expressed in CHO-K1 cells, C-terminally truncated after serine 157 (137 amino acids)
- intracellular Ca2+ levels [3]: increased
- reactivity of other receptors [4]: totally unreactive
- concentrations causing intracellular calcium release, inhibition of cAMP accumulation, phosphorylation of p42 and p44 MAP kinases [1]: low nanomolar concentrations
- activity on wild-type CHO-K1 cells (wild-type CHO-K1 cells): No activity
- concentration of maximal chemotactic activity ([2]; immature dendritic cells): 1 nM
- in vitro migration ([2]; macrophages and immature dendritic cells): promoted in vitro migration
- chemotaxis ([2]; mature dendritic cells): no chemotaxis

B1: mouse Chemerin: mouse Chemerin expressed by B16F0 melanoma cells transfected with a bicistronic expression vector containing the mouse Chemerin cDNA (protein)
chain: EPELSETQRRSLQVALEEFHKHPPVQLAFQEIGVDRAEEVLFSAGTFVRLEFKLQQTNCPKKDWKKPECTIKPNGRRRKCLACIKMDPKGKILGRIVHCPILKQGPQDPQELQCIKIAQAGEDPHGYFLPGQFAFSRALRTK
- growth rate of the cell lines (B16F0 melanoma cell line): did not modify the growth rate
- average reduction of size of developing tumors (B16-F0 melanoma cells; 21-24 days after the graft of Chemerin-expressing cells vs control): 70%
- mice that did not develop tumors (B16-F0 melanoma cells; three series combined, up to four weeks after graft, 0/24 in control group, p<0.05): 5 out of 24

B2: prochemerin: unprocessed form of the protein retaining the six C-terminal aminoacids (143 amino acids) (protein, listed as Homo sapiens)
chain: ELTEAQRRGLQVALEEFHKHPPVQWAFQETSVESAVDTPFPAGIFVRLEFKLQQTSCRKRDWKKPECKVRPNGRKRKCLACIKLGSEDKVLGRLVHCPIETQVLREAEEHQETQCLRVQRAGEDPHSFYFPGQFAFSKALPRS
- activity on wild-type CHO-K1 cells (wild-type CHO-K1 cells): No activity
- EC50 ([5]; CHO cells expressing ChemerinR, aequorin assay, read-out: EC50 for activation of ChemerinR): 393 ± 116 nM
- EC50 ([5]; truncated Chemerin peptides, values in nM, read-out: Mean EC50): 393 ± 116 nM
- conversion into a form active on ChemerinR [6]: fully converted
